The text below walks through data of PMC8992272, “Stabilities of Three Key Biological Trisulfides with Implications for Their Roles in the Release of Hydrogen Sulfide and Bioaccumulation of Sulfane Sulfur” (ACS Omega, 2022).

Data set [1] in a line: Equilibrium between di-, tri- and tetrasulfides in the presence of elemental sulfur (1H NMR). Type of data set: physicochemical. Particulars: D2O with elemental sulfur and butylamine, after 4 days.
Experimental: To test this hypothesis, a reaction was completed in D2O with elemental sulfur, NAC disulfide, and butylamine.
To understand why the degradation leveled off, NAC trisulfide was dissolved in water, elemental sulfur was added, and the contents were heated to 40 °C.
N-Acetylcysteine disulfide (9.3 mg, 23 μmol) was dissolved in 600 μL of D2O. Elemental sulfur (6.8 mg, 0.21 mmol) and butylamine (18.5 mg, 0.25 mmol) were added, and the ^1H NMR spectra were periodically obtained to track the equilibrium.
For data set [2] the following is noted: cited from earlier work.
The conditions of data set [3]: no reference given, cited from earlier work.
A short description of data set [4]: Stability in water/D2O buffered at different pH values, tracked by 1H NMR. The note with it: for half-life: buffered water/D2O, read-out: estimated half-life (converted); for degradation: pH 5.8, 9 days. The format is physicochemical. The text has this: The ^1H NMR spectra of NAC and the disulfide, trisulfide, and tetrasulfide of NAC had peaks at unique values for chemical shifts and allowed for their easy characterization (Figure 3). Pure chemicals of each sulfide were synthesized and characterized by ^1H and ^13C NMR spectroscopy as well as by high-resolution mass spectroscopy. The unique chemical shifts of the peaks for the Ha and Hb/Hc protons on the sulfides allowed the integration of each sulfide to be determined.
The stability of NAC trisulfide in water buffered at pH values of 5.8, 7.4, and 9.0 was measured.
The stability of cysteine trisulfide was investigated in buffered water at pH values of 5.8, 7.0, and 9.0. […] At pH values of 5.8, 7.0, and 9.0, the cysteine trisulfide was soluble and its ^1H NMR spectra were obtained.
The stability of glutathione trisulfide was investigated at pH values of 5.8, 7.4, and 9.0 (Figure S14a). The degradation of glutathione trisulfide was more rapid at pH values of 5.8 and 7.4 than that of the trisulfides of NAC and cysteine. At an acidic pH of 5.8, 71% of glutathione trisulfide degraded after 10 days. At pH values of 7.4 and 9.0, glutathione trisulfide degraded 79 and 81%, respectively, at day 9. […] The degradation of glutathione trisulfide reached an equilibrium of approximately 20% with the disulfide due to the reaction catalyzed by amine with elemental sulfur. Rate constants and half-lives were obtained for the degradation of glutathione trisulfide at each pH value using early data points unaffected by the equilibrium. At pH values of 5.8, 7.4, and 9.0, the estimated half-lives were 6.3 days (151 h), 0.90 days (21.6 h), and 0.79 days (19.0 h), respectively (Figure S14b).
The stability of NAC tetrasulfide was investigated in D2O buffered at pH values of 5.8, 7.4, and 9.0 (Figure S16a). At a pH of 5.8, NAC tetrasulfide degraded by 13% after 9 days. At pH values of 7.4 and 9.0, the tetrasulfide degraded by 55 and 52%, respectively, after 9 days. At each pH, the degradation product was NAC trisulfide, elemental sulfur, and a small amount of NAC disulfide (<3%). […] Estimated rate constants and half-lives for the degradation of NAC tetrasulfide at each pH were obtained. At pH values of 5.8, 7.4, and 9.0, the estimated half-lives were 53.3, 7.5, and 8.2 days, respectively (Figure S16b).

Another data set is described as follows: Solubility observations. Type of data set: physicochemical.
Data set [5] is described as follows: Stability in D2O in the presence of butylamine or triethylamine, tracked by 1H NMR. The format is physicochemical. Particulars: for degraded: after 1 day; for tetrasulfide present: butylamine and triethylamine. On the procedure: N-Acetylcysteine trisulfide (26.5 mg, 66 μmol) was dissolved in 600 μL of D2O. Butylamine (5.0 mg, 68 μmol) was added, and the ^1H NMR spectra were taken periodically to track degradation.
N-Acetylcysteine trisulfide (26.5 mg, 66 μmol) was dissolved in 600 μL of D2O. Triethylamine (8.0 mg, 79 μmol) was added, and the ^1H NMR spectra were taken periodically to track degradation.
Cysteine trisulfide (5.5 mg, 20 μmol) was added to 600 μL of D2O. The solution was filtered to remove undissolved particles. […] The ^1H NMR spectra were taken periodically to track degradation.
Cysteine trisulfide (4.3 mg, 16 μmol) was added to 600 μL of D2O. The solution was filtered to remove undissolved particles. […] The ^1H NMR spectra were taken periodically to track degradation.
N-Acetylcysteine tetrasulfide (17.2 mg, 44 μmol) was dissolved in 600 μL of D2O. Butylamine (9.9 mg, 135 μmol) was added, and the ^1H NMR spectra were taken periodically to track degradation.
N-Acetylcysteine tetrasulfide (17.2 mg, 44 μmol) was dissolved in 600 μL of D2O. Triethylamine (13.5 mg, 135 μmol) was added, and the ^1H NMR spectra were taken periodically to track degradation.

Data set [6] is described as follows: Stability in the presence of acetonitrile, benzamide, zinc sulfate or iron sulfate, or in methanol-d4 (1H NMR). Particulars: 3:1 mole ratio acetonitrile or benzamide, D2O, after 12 days. Type of data set: physicochemical. On the procedure:
N-Acetylcysteine trisulfide (26.5 mg, 66 μmol) was dissolved in 600 μL of D2O. Acetonitrile (3.0 mg, 73 μmol) was added, and the ^1H NMR spectra were taken periodically to track degradation.
N-Acetylcysteine trisulfide (31.4 mg, 78 μmol) was dissolved in 600 μL of D2O. Benzamide (9.4 mg, 78 μmol) was added, and the ^1H NMR spectra were taken periodically to track degradation.
N-Acetylcysteine trisulfide (15.0 mg, 38 μmol) was dissolved in 600 μL of D2O. ZnSO4 (11.8 mg, 73 μmol) was added, and the ^1H NMR spectra were taken periodically to track degradation.
N-Acetylcysteine trisulfide (15.0 mg, 38 μmol) was dissolved in 600 μL of D2O. FeSO4·7H2O (11.6 mg, 41 μmol) was added, and the ^1H NMR spectra were taken periodically to track degradation.
N-Acetylcysteine trisulfide (32.1 mg, 80 μmol) was dissolved in 600 μL of CD3OD. The ^1H NMR spectra were taken periodically to track degradation.
Cysteine trisulfide (5.1 mg, 19 μmol) was added to 600 μL of D2O. Solution was filtered to remove undissolved particles. […] The ^1H NMR spectra were taken periodically to track degradation.
Cysteine trisulfide (6.8 mg, 25 μmol) was added to 600 μL of D2O. Solution was filtered to remove undissolved particles. […] The ^1H NMR spectra were taken periodically to track degradation.

Data set [7] can be described thus: Stability in nonbuffered D2O at room and elevated temperature (1H NMR). The format is physicochemical. The note with it: nonbuffered D2O. As for the experimental part:
N-Acetylcysteine trisulfide (24.3 mg, 61 μmol) was dissolved in 500 μL of D2O and placed in a 40 °C oil bath. The ^1H NMR spectra were taken periodically to track degradation.
N-Acetylcysteine trisulfide (24.3 mg, 61 μmol) was dissolved in 500 μL of D2O and placed in a 60 °C oil bath. The ^1H NMR spectra were taken periodically to track degradation.
N-Acetylcysteine tetrasulfide (8.0 mg, 21 μmol) was dissolved in 600 μL of D2O. The ^1H NMR spectra were taken periodically to track degradation.
N-Acetylcysteine tetrasulfide (10.0 mg, 26 μmol) was dissolved in 600 μL of D2O and placed in a 40 °C oil bath. The ^1H NMR spectra were taken periodically to track degradation.

SMILES strings stand for the structures. Where two headings read alike, the source gives them in different places.

A word on the pKa: it is the pH at which an ionisable group is half protonated. In general, half-life refers to how long it takes for the measured level to halve.

Consider `CC(=O)N[C@@H](CSSC[C@H](NC(C)=O)C(=O)O)C(=O)O` [NAC disulfide, N-Acetylcysteine disulfide, reference compound], for which, in data set [1], the converted to trisulfide came to 15%.
For the compound `C=CCSSSCC=C` [DATS, diallyl trisulfide], in data set [2] (in the presence of glutathione (GSH)), the degradation result is “degraded rapidly”. In addition, the stability result in data set [2] (micellar solution (propylene glycol, ethanol, Tween 80, water), pH 2.6 to 7.0, 15 min, HPLC) is given as “stable”; in data set [2] (neat, 4 °C, after 3 months, HPLC) it was “stable”; in data set [2] (same micellar solution, in the presence of antioxidants), “not stable”. For the same compound, the degraded was 30% in data set [2] (neat, 35 °C, after 3 months, HPLC) and 11% in data set [2] (neat, room temperature, after 3 months, HPLC).
With `CSSSC` [DMTS, dimethyl trisulfide], the degradation result in data set [2] (neat, 4 and 22 °C, over 1 year) is on record as “no degradation”. Also, in data set [2] (neat, 34 °C, over 1 year), the degraded is listed as 70%.
As for `N[C@@H](CS)C(=O)O` [cysteine], in data set [3] (ammonium group), the pKa is listed as 10.8.
Turning to `N[C@@H](CCC(=O)N[C@@H](CS)C(=O)NCC(=O)O)C(=O)O` [glutathione], in data set [3] (ammonium group), the pKa is given as 9.6.
For the compound `N[C@@H](CSSSC[C@H](N)C(=O)O)C(=O)O` [cysteine trisulfide, Cysteine Trisulfide], the stability entry in data set [4] (basic conditions (abstract)) was “unstable”. Besides, the half-life in data set [4] (pH 7, pH 7.0) is 406 h; in data set [4] (pH 9, pH 9.0) it was 274 h; in data set [5] (D2O with butylamine, in the presence of butylamine, D2O, early data points, read-out: estimated half-life of degradation (converted)), 2.3 h; in data set [5] (D2O with triethylamine, in the presence of triethylamine, D2O, early data points, read-out: estimated half-life of degradation (converted)) it was 2.9 h. In addition, the degradation in data set [4] was < 3%; in data set [6] it was “no observable degradation”. Also, the degraded in data set [4] (pH 7.0, after 13 days) amounted to 40%; in data set [4] (pH 9.0, after 13 days), 56%; in data set [5] (in the presence of butylamine, D2O), 63%; in data set [5] (in the presence of triethylamine, D2O), 78%. The solubility entry was “soluble” in “Solubility observations” (buffered water pH 5.8, 7.0 and 9.0); “poorly soluble” in “Solubility observations” (buffered water pH 7.4). The “trisulfide remaining (degradation leveled off)” value in data set [5] (after 10 days in the presence of butylamine and triethylamine, D2O) was “approximately 20%”.
As to `CC(=O)NC(CSSSSCC(NC(C)=O)C(=O)O)C(=O)O` (centres unmarked) [NAC tetrasulfide, N-Acetylcysteine Tetrasulfide], the half-life in data set [4] (pH 5.8, pH 5.8) is 1280 h; in data set [4] (pH 7.4, pH 7.4), 180 h; in data set [4] (pH 9, pH 9.0), 197 h; in data set [5] (D2O with butylamine, in the presence of butylamine (abstract), read-out: half-life) it was ≤ 0.025 h. The degradation is reported as 13% in data set [4] and 83% in data set [7] (40 °C, after 63 days). Also, the degraded in data set [4] (pH 7.4, day 9) stood at 55%; in data set [4] (pH 9.0, day 9), 52%; in data set [7] (40 °C, after 20 days) it was 83%; in data set [7] (room temperature, after 35 days), 69%. The half-life at 73 mM in data set [5] (D2O with butylamine or triethylamine, in the presence of butylamine and triethylamine (both amines), read-out: upper limit of the half-life) was ≤ 1.6 min. For the same compound, the results for the tetrasulfide present entry in data set [5] (after 5 min) and in data set [5] (after a day) were “less than 10%” and 4%, respectively. In addition, the estimated rate constant in data set [7] (40 °C) is listed as 8.7 × 10^–2 days^–1; in data set [7] (room temperature), 3.9 × 10^–2 days^–1. The half-life at 43 mM in data set [7] (40 °C, read-out: estimated half-life (converted)) was 192 h. Besides, in data set [7] (room temperature, read-out: estimated half-life (converted)), the half-life at 35 mM was 427 h. Further, the stability entry in data set [2] (in the presence of thiols, released H2S) was “unstable”.
For `S` [H2S, hydrogen sulfide], in data set [3], the pKa is given as 7.0.
